2 compounds from PMC5698383 (Applied Biochemistry and Biotechnology, 2017) can be followed below.

One may read the % inhibition as the relative decrease from the control value, in per cent. For orientation: inhibition means how much of the control response was suppressed.

The target in assay [1] is T1, FtFBPaseII (Francisella tularensis, UniProt Q5NEJ8).
T1 construct: gene gplX

In assay [2] the target is T1, FtFBPaseII. Put plainly: biochemical. The note with it: read-out: % inhibition at 1 mM.

SMILES strings stand for the structures.

T1 sequence (Q5NEJ8 1-328): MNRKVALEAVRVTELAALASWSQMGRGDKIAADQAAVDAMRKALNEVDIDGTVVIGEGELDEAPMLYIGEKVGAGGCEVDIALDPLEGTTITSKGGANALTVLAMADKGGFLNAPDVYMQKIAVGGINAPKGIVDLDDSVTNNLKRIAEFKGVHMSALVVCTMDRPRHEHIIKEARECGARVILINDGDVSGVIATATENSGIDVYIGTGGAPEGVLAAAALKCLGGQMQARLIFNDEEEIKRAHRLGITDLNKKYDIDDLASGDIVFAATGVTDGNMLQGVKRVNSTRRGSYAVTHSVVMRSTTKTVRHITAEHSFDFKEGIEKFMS

Turning to `O=P(O)(O)O` [phosphate], on FtFBPaseII [1], the “% inhibition at 150 μM” value is recorded as 69%.

`Nc1ncnc2c1ncn2[C@@H]1O[C@H](COP(=O)(O)OP(=O)(O)O)[C@@H](O)[C@H]1O` [Adenosine diphosphate]: the inhibition at 1000 µM at FtFBPaseII [2] came out at 28%.
